According to ChEMBL document CHEMBL1641424, “Synthesis and biological activity of novel 5'-arylamino-nucleosides by microwave-assisted one-pot tandem Staudinger/aza-Wittig/reduction” (Bioorg Med Chem Lett, 2011):
Activity calls are given as the source filed them. No cut-off for these calls is given here.

Tests used:
[1] = target: Human immunodeficiency virus type 1 reverse transcriptase (Human immunodeficiency virus 1, UniProt Q72547); assay: Inhibition of HIV1 reverse transcriptase activity after 1 hr by ELISA
HeLa = assay: Cytotoxicity against human HeLa cells up to 200 uM after 48 hrs by MTT assay

SMILES	IC50 [1] [µM]	Activity (HeLa)
O=c1[nH]c(=O)n([C@@H]2O[C@H](CNCc3c(F)cccc3Cl)[C@@H](O)[C@H]2O)cc1F	3.9	inactive
O=c1[nH]c(=O)n([C@@H]2O[C@H](CNCc3c(Cl)cccc3Cl)[C@@H](O)[C@H]2O)cc1F	4.84	inactive
O=c1ccn([C@@H]2O[C@H](CNCc3c(F)cccc3Cl)[C@@H](O)[C@H]2O)c(=O)[nH]1	4.99	inactive
O=c1ccn([C@@H]2O[C@H](CNCc3c(Cl)cccc3Cl)[C@@H](O)[C@H]2O)c(=O)[nH]1	4.72	inactive
O=c1ccn([C@@H]2O[C@H](CNCc3ccccc3Cl)[C@@H](O)[C@H]2O)c(=O)[nH]1	6.13	inactive

The next compounds have a lower IC50 [1] than those just listed; values first:

IC50 [1] [µM]	SMILES	Activity (HeLa)
3.75	O=c1[nH]c(=O)n([C@@H]2O[C@H](CNCc3ccc(Cl)cc3)[C@@H](O)[C@H]2O)cc1F	inactive
3.53	O=c1[nH]c(=O)n([C@@H]2O[C@H](CNCc3ccccc3Cl)[C@@H](O)[C@H]2O)cc1F	inactive
2.82	O=c1ccn([C@@H]2O[C@H](CNCc3ccc(Cl)cc3)[C@@H](O)[C@H]2O)c(=O)[nH]1	inactive
